Laboratory results from patent US9089568B2, “Method of using compatible solutes containing ectoine and/or hydroxyectoine” (Bitop AG, priority 2005, dated 2015).

Columns and labels:
amyloid plaques = assay: amyloid plaque formation in mice after oral application; format: in vivo
Excerpt: Unexpectedly, it has now been ascertained from investigations with mice is involving the oral application of compatible solutes ectoine, hydroxyectoine and firoin A that this enabled the formation of amyloid plaques to be reduced. Likewise, through the administration of compatible solutes the occurrence of neuropathologic effects could be reduced. […] It is to be assumed that such a preventive effect but nevertheless the therapeutic effect as well is primarily attributable to the amyloid-inhibiting properties of “compatible solutes”.

amyloid fibrils = settings: in vitro; Arora et al. (2004); cited from earlier work
[1] = tested on: chronically inflammable intestinal disease; assay: mouse model for Crohn's disease, oral compatible solutes; format: in vivo; settings: oral ingestion
Excerpt: Moreover, immunological investigations have shown that the TH-2 TH-1 approach typically adopted for the chronically inflammable intestinal disease may to some extent be circumvented by “compatible solutes”. However, the positive effect of “compatible solutes” is not only limited to an alleviation of the symptoms of chronically inflammable intestinal diseases but in addition is characterized by a pronounced preventive potential. […] It is to be assumed that such a preventive effect but also the therapeutic effect is primarily attributable to the anti-inflammatory properties of “compatible solutes” which on the one hand are aimed at the intestinal epithelial cell but also at the helper T lymphocytes deemed to be the cause of the pathogenesis.

Structure (SMILES) | formation of amyloid plaques (amyloid plaques) | formation of protein deposits, so-called amyloid fibrils (amyloid fibrils) | course of chronically inflammable intestinal diseases [1]
CC1=NCCC(C(=O)O)N1 (centres unmarked) [ectoine, 2-methyl-4-carboxy-3,4,5,6-tetrahydropyrimidine] | reduced | inhibit | favorably influenced
NC(=O)[C@H](CO)O[C@@H]1O[C@H](CO)[C@@H](O)[C@H](O)[C@@H]1O [firoin A, mannosylglyceramide] | reduced |  | 
CC1=NCC(O)C(C(=O)O)N1 (centres unmarked) [hydroxyectoine, 2-methyl-4-carboxy-5-hydroxy-3,4,5,6-tetrahydropyrimidine] | reduced |  | 
